{
  "source": "patent US20140371158A1",
  "about": "“BEAUVERICIN COMPOSITIONS AND METHODS THEREOF FOR INHIBITING THE HSP90 CHAPERONE PATHWAY” (Georgia Regents University, priority 2013, published 2014)",
  "key": {"[1]": {"system": "MDA-MB-453 breast cancer cells", "test": "Cytotoxicity assay, MDA-MB-453", "format": "cell-based", "details": "0-10 μM, 24, 48, 72 h, FIG. 6B"}, "[2]": {"system": "Hsp90, Hsp70, Hsp40, HOP and p23", "test": "PR reconstitution assay using the five purified chaperones", "format": "biochemical", "details": "FIG. 4", "experimental": "(§1) Purified PR was adsorbed onto PR22 antibody-protein A-sepharose resin beads and was assembled into complexes as described previously (Kosano, et al., J Biol Chem 273:32973-9 (1998)). Briefly, about 0.05 μM PR was incubated with 1.4 μM Hsp70, 0.8 μM Hsp90β, 0.2 μM Hsp40 (Ydj), 0.08 μM HOP and 2.6 μM p23 in reaction buffer (20 mM Tris/HCl, pH 7.5, 5 mM MgCl2, 2 mM DTT, 0.01% NP-40, 50 mM KCl and 5 mM ATP). After incubation for 30 min at 30° C., 0.1 μM [^3H]-progesterone (American Radiolabeled Chemicals, Inc #ART 0063) was added. Samples were incubated on ice for 3 h at 4° C. Complexes were then washed three times with 1 ml of reaction buffer and assessed for bound progesterone by liquid scintillation using PerkinElmer Microbeta plate reader and for composition of protein complexes by SDS-PAGE (10% gel) and Coomassie blue staining."}, "[3]": {"system": "Hs578T breast cancer cells", "test": "Cytotoxicity assay, Hs578T", "format": "cell-based", "details": "0-10 μM, 24, 48, 72 h, FIG. 6A"}, "[4]": {"details": "Sigma-Aldrich product B7510, powder; cited from earlier work"}, "[5]": {"system": "Hsp90 client proteins in Hs578T cells", "test": "Western blot of Hsp90 client proteins, Hs578T", "format": "cell-based", "details": "3 μM, 48 h", "experimental": "(§2) Breast cancer cell lines Hs578T and MDA-MB-453 at 40% confluence in 6-well plates (Corning #3516) were cultured for 24 h and then treated with various concentrations of beauvericin. Cells were harvested at indicated time and cell lysates were made. 15 μg of protein lysate were analyzed by Western blotting using specific antibodies for the indicated proteins.\n(§3) Cell lysates prepared in Example 5 were analyzed for markers for heat shock response using western blot. These include overexpression of Hsp70, Hsp27, Hsp40 and HOP."}, "[6]": {"system": "Hsp90 chaperone (refolding of PRA in RRL)", "test": "Progesterone receptor (PR) reconstitution assay in rabbit reticulocyte lysate, recovery of hormone binding activity", "format": "biochemical", "from_the_text": "To identify novel small molecule inhibitors of molecular chaperones, a high-throughput functional screen was developed based on the isoform A of progesterone receptor (PRA), a well-established physiological client of Hsp90, and using rabbit reticulocyte lysate (RRL) as a source of molecular chaperones. This comprehensive functional assay measured the recovery of hormone binding activity of PRA after mild heat treatment. Purified PR was adsorbed onto PR22 antibody bound to protein A that was absorbed on 96 well plates. 100 μl of RRL lysate and ATP regeneration system was added to each well. After incubation for 30 min at 30° C., 0.1 μM [^3H]-progesterone (American Radiolabeled Chemicals, Inc #ART 0063) was added. Plates were incubated on ice for 2 h at 4° C. Complexes were then washed three times with 200 μl of reaction buffer (20 mM Tris/HCl, pH 7.5, 5 mM MgCl2, 2 mM DTT, 0.01% NP-40, 50 mM KCl and 5 mM ATP) and assessed for bound progesterone by liquid scintillation using PerkinElmer Microbeta plate reader.\nBeauvericin was added to the PR reconstitution assay as in example 1, and hormone binding activity was measured."}, "[7]": {"system": "Hsp90 client proteins in MDA-MB-453 cells", "test": "Western blot of Hsp90 client proteins, MDA-MB-453", "format": "cell-based", "details": "3 μM, 48 h", "experimental": "as §2, §3"}, "PRA complexes": {"system": "PRA complexes", "test": "PR reconstitution assay in tubes, composition of protein complexes by SDS-PAGE", "format": "biochemical, rabbit", "details": "FIG. 3", "experimental": "as §1, with “Biol Chem,” for “Biol Chem”, “with 100 μl of RRL.” for “with 1.4 μM Hsp70, 0.8 μM Hsp90β, 0.2 μM Hsp40 (Ydj), 0.08 μM HOP and 2.6 μM p23 in reaction buffer (20 mM Tris/HCl, pH 7.5, 5 mM MgCl2, 2 mM DTT, 0.01% NP-40, 50 mM KCl and 5 mM ATP).”, “ml” for “ml of”, “buffer (20 mM Tris/HCl, pH 7.5, 5 mM MgCl2, 2 mM DTT, 0.01% NP-40, 50 mM KCl and 5 mM ATP)” for “buffer”, “plate reader,” for “plate reader”"}, "[8]": {"system": "Hsp70, Hsp27, Hsp40 and HOP in Hs578T and MDA-MB-453 cells", "test": "Western blot of markers for heat shock response", "format": "cell-based", "details": "3 μM, 48 h, FIG. 7", "experimental": "as §2, §3"}, "HeLa-PRB cells": {"system": "HeLa-PRB cells", "test": "Immunocytochemistry and fluorescence microscopy, nucleocytoplasmic trafficking of steroid receptors", "format": "cell-based", "experimental": "HeLa-PRB cells were grown in 24-well plates (Corning #3337) on micro-cover glasses (Electron Microscopy Sciences) to about 50% confluence in MEM, 1× (Cellgro #10-010-CV) medium supplemented with 10% fetal bovine serum. Cells were treated with 3 μM beauvericin (or DMSO control) for 24 h. Cells were fixed with 0.1 M PIPES, pH 6.95, 1 mM EGTA, pH 8.0, 3 mM MgSO4, 3% paraformaldehyde, permeabilized with 0.1% triton X-100, and blocked with 10% fetal bovine serum with 5% glycerol and stored at 4° C. Primary antibodies against PRB, GR and Hsp90 and secondary antibodies were prepared in the blocking buffer. Coverslips were washed and mounted on slides with ProLong Gold anti-fade reagent with 4′,6-diamidino-2-phenylindole (Invitrogen). Cells were imaged using a Zeiss Imager M1 microscope. Deconvolution of Z-stack images was done using an inverse filter algorithm with auto-linear normalization."}},
  "data": [
    {"compound": "CC(C)[C@@H]1OC(=O)[C@@H](Cc2ccccc2)N(C)C(=O)[C@H](C(C)C)OC(=O)[C@@H](Cc2ccccc2)N(C)C(=O)[C@H](C(C)C)OC(=O)[C@@H](Cc2ccccc2)N(C)C1=O", "note": "[beauvericin]", "values": [
      {"measurement": "in vitro cytotoxicity (relative survival)", "setting": "[1]", "result": "potent in vitro cytotoxicity"},
      {"measurement": "inhibitory activity on five-protein system (PRA reconstitution)", "setting": "[2]", "result": "no inhibitory activity"},
      {"measurement": "in vitro cytotoxicity (relative survival)", "setting": "[3]", "result": "potent in vitro cytotoxicity"},
      {"measurement": "solubility in acetonitrile", "setting": "[4]", "result": 1000, "unit": "µg/mL"},
      {"measurement": "solubility in methanol", "setting": "[4]", "result": 1000, "unit": "µg/mL"},
      {"measurement": "AKT destabilization", "setting": "[5]", "result": "destabilized"},
      {"measurement": "Her2 destabilization", "setting": "[5]", "result": "reverse profile"},
      {"measurement": "cellular degradation of Hsp90 clients (AKT, pAKT, CDK4, ILK, Her2, Her3, GR)", "setting": "[5]; FIG. 7A", "result": "caused cellular degradation"},
      {"measurement": "inhibition of reconstitution of PRA in RRL (hormone binding activity)", "setting": "[6]; FIG. 1, compared with 17-AAG", "result": "comparable efficacy to the classical Hsp90 inhibitor 17-AAG"},
      {"measurement": "inhibition of the ability of the Hsp90 chaperone to refold PRA", "setting": "[6]; FIG. 2, 0, 1, 5, 10, 20, 40 μM", "result": "concentration-dependent manner"},
      {"measurement": "AKT destabilization", "setting": "[7]", "result": "not"},
      {"measurement": "Her2 destabilization", "setting": "[7]", "result": "reverse profile"},
      {"measurement": "cellular degradation of Hsp90 clients (AKT, pAKT, CDK4, ILK, Her2, Her3, GR)", "setting": "[7]; FIG. 7B", "result": "caused cellular degradation"},
      {"measurement": "level of Hsp90 in PRA complexes", "setting": "PRA complexes", "result": "decreased"},
      {"measurement": "recruitment of Exportin-7 into PRA complexes", "setting": "PRA complexes; mass spectrometry", "result": "caused the recruitment of a novel protein into these complexes"},
      {"measurement": "Hsp40 expression", "setting": "[8]", "result": "down-regulates"},
      {"measurement": "overexpression of HOP", "setting": "[8]", "result": "does not induce overexpression"},
      {"measurement": "overexpression of Hsp27", "setting": "[8]; in contrast to 17-AAG", "result": "does not induce overexpression"},
      {"measurement": "overexpression of Hsp70", "setting": "[8]; in contrast to 17-AAG", "result": "does not induce overexpression"},
      {"measurement": "PRB stability by Western blot", "setting": "HeLa-PRB cells; HeLa-PRB cells", "result": "not destabilized"},
      {"measurement": "PRB recognition by the monoclonal antibody PR6 in immunocytochemistry", "setting": "HeLa-PRB cells; HeLa-PRB, 3 μM, 24 h", "result": "reproducibly blocked"},
      {"measurement": "glucocorticoid receptor (GR) localization", "setting": "HeLa-PRB cells; HeLa-PRB, 3 μM, 24 h", "result": "lock it in the nucleus"}
    ]}
  ]
}
